In this data set the test system is human FLS cells. The data set is described as follows: Cellular cytotoxicity by release of lactate dehydrogenase (LDH). Type of data set: cell-based. The conditions noted are these: presence and absence of cytokine stimulation, 24 hr; IDR-1002 100 μg/ml, IDR-1 200 μg/ml; data not shown. The method, then: Synovial tissues were obtained from patients with OA in accordance to a protocol by the Institutional Review Board at the University of Manitoba. FLS cells were isolated from the synovial tissues following the procedure taught by Kammouni et al. (2007, Regulation of apoptosis in fibroblast-like synoviocytes by the hypoxia-induced Bcl-2 family member Bcl-2/adenovirus E1B 19-kd protein-interacting protein 3. Arthritis Rheum. 56:2854-2863). […] Cellular cytotoxicity was evaluated by monitoring the release of lactate dehydrogenase (LDH) employing a colorimetric detection kit (Roche Diagnostics, Laval, QC, Canada).
Inflammatory cytokines TNF-α and IL-1β stimulate cells types such as FLS, chondrocytes and macrophages resulting in the production of MMP-3 in arthritic joints. […] In this study we evaluated the impact of IDR peptides on TNF-α and IL-1β-induced MMP-3 production. […] The peptides were not cytotoxic to the FLS cells in the presence and absence of cytokine stimulation, as determined by monitoring the tissue culture supernatants for the release of LDH after 24 hr of stimulation (data not shown). Tissue culture supernatants were monitored after 24 hr of stimulation for MMP-3 production by ELISA. […]

Residues, ends and D or L forms follow the SMILES beside them.

Consider `CC[C@H](C)[C@H](NC(=O)[C@H](CCCNC(=N)N)NC(=O)[C@H](CO)NC(=O)[C@@H](N)CCCCN)C(=O)N[C@H](C(=O)N1CCC[C@H]1C(=O)N[C@@H](C)C(=O)N[C@H](C(=O)N1CCC[C@H]1C(=O)N[C@H](C(=O)N[C@@H](CO)C(=O)N[C@@H](CC(C)C)C(=O)N[C@@H](CC(C)C)C(=O)O)C(C)C)[C@@H](C)CC)C(C)C` [IDR-1, KSRIVPAIPVSLL, reference compound] (H-KSRIVPAIPVSLL-OH), for which the “cytotoxicity to FLS cells (release of LDH)” value is on record as “not cytotoxic”.

(Values after US20130316963A1, “INNATE DEFENCE REGULATORY PEPTIDE COMPOSITIONS FOR TREATMENT OF ARTHRITIS” (UNIVERSITY OF MANITOBA, priority 2010, published 2013).)
